Results: PubChem BioAssay AID248 (DTP/NCI, 2004)
Several values for one entry are separate records, joined by “and”; a condition that tells them apart may be missing. Identical values can stand only once. Toxic doses and inconclusive results are not listed. Rule as the data show it: active = T/C of 150% or more; inactive = T/C below 125%.

System: L1210 leukemia ip in BDF1 mice, survival T/C
Assay: NCI In Vivo Anticancer Drug Screen. Data for tumor model L1210 Leukemia (intraperitoneal) in B6D2F1 (BDF1) mice
Conditions: endpoint: mean survival time, higher = longer survival
Procedure, shortened: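 Each compound was tested against a transplantable tumor grown in mice. The endpoint was survival, with treated animals benchmarked against vehicle controls as a simple ratio.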

[1] = dose: 100.0 mg/kg/injection, schedule: Q01DX001 (ip), vehicle: saline
[2] = dose: 200.0 mg/kg/injection, schedule: Q01DX001 (ip), vehicle: saline
[3] = dose: 400.0 mg/kg/injection, schedule: Q01DX001 (ip), vehicle: saline
[4] = dose: 50.0 mg/kg/injection, schedule: Q01DX009 (ip), vehicle: Klucel (hydroxypropylcellulose) (HPC)

Measured: T/C

Oc1ccc(N=Cc2ccccc2)cc1
inactive: dose: 100.0 mg/kg/injection, schedule: Q04DX002 (ip), vehicle: gum acacia 98 % of control | dose: 200.0 mg/kg/injection, schedule: Q04DX002 (ip), vehicle: gum acacia 109 % of control | dose: 400.0 mg/kg/injection, schedule: Q04DX002 (ip), vehicle: gum acacia 106 % of control

O=C(NNC(=O)c1ccccc1)c1ccccc1
inactive: dose: 100.0 mg/kg/injection, schedule: Q04DX002 (ip), vehicle: Klucel (hydroxypropylcellulose) (HPC) 101 % of control | dose: 200.0 mg/kg/injection, schedule: Q04DX002 (ip), vehicle: Klucel (hydroxypropylcellulose) (HPC) 101 % of control | dose: 400.0 mg/kg/injection, schedule: Q04DX002 (ip), vehicle: Klucel (hydroxypropylcellulose) (HPC) 101 % of control

CCN(CC)CCCC(C)NC(=O)c1cc(=O)[nH]c(=O)[nH]1 (stereo unspecified)
inactive: dose: 25.0 mg/kg/injection, schedule: Q01DX009 (ip), vehicle: water 106 % of control | dose: 50.0 mg/kg/injection, schedule: Q01DX009 (ip), vehicle: water 96 % of control | dose: 100.0 mg/kg/injection, schedule: Q01DX009 (ip), vehicle: water 103 % of control and 91 % of control | dose: 100.0 mg/kg/injection, schedule: Q04DX003 (ip), vehicle: water 104 % of control | dose: 200.0 mg/kg/injection, schedule: Q04DX003 (ip), vehicle: water 101 % of control

Clc1ccc(C(c2ccccc2Cl)C(Cl)Cl)cc1 (stereo unspecified)
inactive: dose: 62.5 mg/kg/injection, schedule: Q01DX009 (sc), vehicle: steriod suspending solution 98 % of control and 101 % of control | dose: 62.5 mg/kg/injection, schedule: Q01DX010 (sc), vehicle: saline 91 % of control | dose: 62.5 mg/kg/injection, schedule: Q01DX010 (sc), vehicle: steriod suspending solution 102 % of control | dose: 125.0 mg/kg/injection, schedule: Q01DX009 (sc), vehicle: steriod suspending solution 98 % of control and 103 % of control | dose: 125.0 mg/kg/injection, schedule: Q01DX010 (sc), vehicle: saline 102 % of control | dose: 125.0 mg/kg/injection, schedule: Q01DX010 (sc), vehicle: steriod suspending solution 98 % of control | dose: 250.0 mg/kg/injection, schedule: Q01DX009 (sc), vehicle: steriod suspending solution 97 % of control and 100 % of control | dose: 250.0 mg/kg/injection, schedule: Q01DX010 (sc), vehicle: saline 91 % of control | dose: 250.0 mg/kg/injection, schedule: Q01DX010 (sc), vehicle: steriod suspending solution 102 % of control | dose: 500.0 mg/kg/injection, schedule: Q01DX009 (sc), vehicle: steriod suspending solution 97 % of control and 101 % of control | dose: 500.0 mg/kg/injection, schedule: Q01DX010 (sc), vehicle: saline 94 % of control | dose: 500.0 mg/kg/injection, schedule: Q01DX010 (sc), vehicle: steriod suspending solution 98 % of control

O=C1OCC(O)=C1Cc1ccccc1
inactive: [1] 101 % of control | [2] 89 % of control | [3] 94 % of control

O=C(OCCBr)c1ccc([N+](=O)[O-])cc1
inactive: [4] 100 % of control | dose: 100.0 mg/kg/injection, schedule: Q01DX009 (ip), vehicle: Klucel (hydroxypropylcellulose) (HPC) 106 % of control | dose: 200.0 mg/kg/injection, schedule: Q01DX009 (ip), vehicle: Klucel (hydroxypropylcellulose) (HPC) 97 % of control

Cc1cnc2c(Nc3ccc(Cl)cc3)cc(N)nc2n1
inactive: dose: 12.5 mg/kg/injection, schedule: Q01DX001 (ip), vehicle: other 94 % of control | dose: 25.0 mg/kg/injection, schedule: Q01DX001 (ip), vehicle: other 96 % of control | dose: 25.0 mg/kg/injection, schedule: Q04DX003 (ip), vehicle: Klucel (hydroxypropylcellulose) (HPC) 96 % of control | dose: 50.0 mg/kg/injection, schedule: Q01DX001 (ip), vehicle: other 94 % of control and 105 % of control | [4] 94 % of control | dose: 50.0 mg/kg/injection, schedule: Q04DX003 (ip), vehicle: Klucel (hydroxypropylcellulose) (HPC) 101 % of control

BrCC12CCC1(CBr)COC2 (stereo unspecified)
inactive: [1] 99 % of control | [2] 103 % of control | [3] 101 % of control

COc1cc(/C=C2\C(=O)NC(=O)N(c3ccccc3)C2=O)cc(OC)c1OC
inactive: dose: 50.0 mg/kg/injection, schedule: Q01DX009 (ip), vehicle: saline with Tween-80 101 % of control | dose: 100.0 mg/kg/injection, schedule: Q01DX009 (ip), vehicle: saline with Tween-80 100 % of control

N=c1c(-c2ccccc2)cc2ccccc2n1O
inactive: dose: 75.0 mg/kg/injection, schedule: Q01DX001 (ip), vehicle: other 103 % of control | dose: 150.0 mg/kg/injection, schedule: Q01DX001 (ip), vehicle: other 101 % of control | dose: 300.0 mg/kg/injection, schedule: Q01DX001 (ip), vehicle: other 98 % of control

COc1ccc(OCCCCCCCCCCBr)cc1
inactive: dose: 100.0 mg/kg/injection, schedule: Q04DX002 (ip), vehicle: other 101 % of control | dose: 200.0 mg/kg/injection, schedule: Q04DX002 (ip), vehicle: other 96 % of control | dose: 400.0 mg/kg/injection, schedule: Q04DX002 (ip), vehicle: other 93 % of control
